A word on the IC50: it is the concentration needed to halve the response being measured. Read a high IC50 as a need for much substance.

The source of these data is paper PMC4791268, “Inhibition of p300 lysine acetyltransferase activity by luteolin reduces tumor growth in head and neck squamous cell carcinoma (HNSCC) xenograft mouse model” (Oncotarget, 2015).

The target of the experiment is T1, p300 (Homo sapiens, UniProt Q09472).
T1 construct: gene EP300; hexahistidine tagged full length p300
Kind of experiment: filter binding KAT assay with HeLa core histones; enzyme inhibition kinetics. It is filed as biochemical.

T1 sequence (Q09472 2-2414): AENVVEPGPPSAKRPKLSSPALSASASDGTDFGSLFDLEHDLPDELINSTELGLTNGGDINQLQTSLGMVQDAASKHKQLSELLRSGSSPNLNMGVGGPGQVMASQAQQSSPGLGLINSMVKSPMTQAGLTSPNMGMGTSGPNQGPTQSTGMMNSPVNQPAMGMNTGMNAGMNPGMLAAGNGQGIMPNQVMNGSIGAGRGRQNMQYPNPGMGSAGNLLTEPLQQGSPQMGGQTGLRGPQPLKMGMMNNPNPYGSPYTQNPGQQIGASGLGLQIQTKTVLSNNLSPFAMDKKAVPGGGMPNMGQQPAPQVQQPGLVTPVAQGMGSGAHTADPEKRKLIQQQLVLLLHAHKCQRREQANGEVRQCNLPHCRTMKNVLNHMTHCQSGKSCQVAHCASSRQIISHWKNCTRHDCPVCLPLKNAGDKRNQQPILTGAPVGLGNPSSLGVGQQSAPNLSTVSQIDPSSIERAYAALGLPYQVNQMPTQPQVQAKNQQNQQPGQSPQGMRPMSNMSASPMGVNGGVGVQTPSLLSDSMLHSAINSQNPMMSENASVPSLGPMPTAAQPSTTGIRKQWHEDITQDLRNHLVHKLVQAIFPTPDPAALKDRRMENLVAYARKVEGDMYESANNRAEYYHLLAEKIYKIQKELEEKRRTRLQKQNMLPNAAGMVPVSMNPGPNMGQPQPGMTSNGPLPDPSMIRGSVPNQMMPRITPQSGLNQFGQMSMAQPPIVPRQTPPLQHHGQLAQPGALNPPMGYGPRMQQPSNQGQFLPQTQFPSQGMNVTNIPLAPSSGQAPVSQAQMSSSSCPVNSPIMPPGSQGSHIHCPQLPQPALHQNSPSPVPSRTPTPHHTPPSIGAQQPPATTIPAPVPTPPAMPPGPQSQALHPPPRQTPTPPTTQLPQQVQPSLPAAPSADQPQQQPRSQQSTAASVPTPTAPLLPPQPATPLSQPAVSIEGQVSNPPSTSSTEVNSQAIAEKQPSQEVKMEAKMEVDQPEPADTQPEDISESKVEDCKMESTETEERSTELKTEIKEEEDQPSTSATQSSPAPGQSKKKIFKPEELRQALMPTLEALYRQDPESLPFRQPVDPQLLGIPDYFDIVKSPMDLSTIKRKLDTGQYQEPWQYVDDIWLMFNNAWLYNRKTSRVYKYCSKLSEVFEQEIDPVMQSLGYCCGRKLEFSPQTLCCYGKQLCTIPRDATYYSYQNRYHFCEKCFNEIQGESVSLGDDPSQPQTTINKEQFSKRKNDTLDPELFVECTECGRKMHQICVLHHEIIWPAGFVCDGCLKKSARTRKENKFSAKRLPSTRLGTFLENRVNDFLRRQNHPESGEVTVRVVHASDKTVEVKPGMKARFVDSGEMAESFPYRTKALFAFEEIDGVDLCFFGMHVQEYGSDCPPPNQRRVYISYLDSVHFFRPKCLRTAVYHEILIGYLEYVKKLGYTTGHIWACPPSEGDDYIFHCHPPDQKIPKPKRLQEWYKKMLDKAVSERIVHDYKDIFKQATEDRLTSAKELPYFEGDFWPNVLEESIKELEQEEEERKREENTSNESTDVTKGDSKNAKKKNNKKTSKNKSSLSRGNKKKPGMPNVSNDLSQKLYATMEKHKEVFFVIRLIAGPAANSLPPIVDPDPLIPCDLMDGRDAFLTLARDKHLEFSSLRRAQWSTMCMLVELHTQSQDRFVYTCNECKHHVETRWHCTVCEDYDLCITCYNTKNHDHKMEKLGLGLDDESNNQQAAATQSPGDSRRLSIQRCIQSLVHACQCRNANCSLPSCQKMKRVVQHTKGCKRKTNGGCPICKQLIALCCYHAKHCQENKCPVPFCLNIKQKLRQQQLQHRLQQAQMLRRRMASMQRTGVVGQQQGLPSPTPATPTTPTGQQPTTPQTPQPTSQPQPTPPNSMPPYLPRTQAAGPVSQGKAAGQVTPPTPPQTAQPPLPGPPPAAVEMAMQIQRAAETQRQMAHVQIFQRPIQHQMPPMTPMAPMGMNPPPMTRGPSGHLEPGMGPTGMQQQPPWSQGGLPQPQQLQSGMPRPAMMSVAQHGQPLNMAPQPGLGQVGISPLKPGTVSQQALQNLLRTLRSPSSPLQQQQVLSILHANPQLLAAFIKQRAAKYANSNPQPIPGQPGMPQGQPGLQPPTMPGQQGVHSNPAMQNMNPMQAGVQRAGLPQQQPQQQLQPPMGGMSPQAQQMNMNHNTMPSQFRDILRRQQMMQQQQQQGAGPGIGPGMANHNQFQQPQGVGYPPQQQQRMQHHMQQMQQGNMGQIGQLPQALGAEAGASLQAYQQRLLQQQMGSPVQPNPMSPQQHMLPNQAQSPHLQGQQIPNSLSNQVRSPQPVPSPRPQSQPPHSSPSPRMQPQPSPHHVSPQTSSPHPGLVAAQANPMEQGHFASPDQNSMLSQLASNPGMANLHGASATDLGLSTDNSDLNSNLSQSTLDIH

On to `O=c1cc(-c2ccc(O)c(O)c2)oc2cc(O)cc(O)c12` [luteolin], for which the IC50 was found to be 7 µM.
